These results are taken from US20260001928A1 (CORTERIA PHARMACEUTICALS, priority 2022, published 2026).

As a reminder, the EC50 is the concentration at which the effect is half-maximal.

*1 amine or outer side, *2 acyl side, *3 side chain or, on linkers, in order; H or OH if unused. Where a SMILES comes first, the peptide text is derived from it. Side-chain parts run from the residue outwards. [ ]: non-standard residue; d: D form. The star is where a group is joined. C20 diacid = O=C(O)CCCCCCCCCCCCCCCCCCC(=O)*; C18 diacid = O=C(O)CCCCCCCCCCCCCCCCC(=O)*; C16 diacid = O=C(O)CCCCCCCCCCCCCCC(=O)*; γGlu = O=C(O)[C@H](CCC(=O)[*:2])N[*:1]; NMeI = CC[C@H](C)[C@H](NC)C(=O)O; AEEA = NCCOCCOCC(=O)O; Aib = CC(C)(N)C(=O)O

The target in one experiment is T1, human CRF2a receptor (Homo sapiens, UniProt Q13324).
T1 construct: expressed in transfected cells; host or cells: TeloHEAC cells
T1 sequence (Q13324 1-411): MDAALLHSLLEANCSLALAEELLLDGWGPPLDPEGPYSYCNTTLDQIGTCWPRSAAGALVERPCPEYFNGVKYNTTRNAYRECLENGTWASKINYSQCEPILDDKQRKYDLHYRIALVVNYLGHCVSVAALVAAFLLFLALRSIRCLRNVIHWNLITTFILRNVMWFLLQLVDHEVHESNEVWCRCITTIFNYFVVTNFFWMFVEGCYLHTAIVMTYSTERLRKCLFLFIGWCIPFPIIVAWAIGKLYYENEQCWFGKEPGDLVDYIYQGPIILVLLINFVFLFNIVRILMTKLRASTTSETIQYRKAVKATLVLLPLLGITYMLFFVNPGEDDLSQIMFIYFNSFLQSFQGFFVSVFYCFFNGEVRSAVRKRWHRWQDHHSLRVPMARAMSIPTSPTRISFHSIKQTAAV
The experiment can be described thus: Activity at human CRF2a receptor, cAMP functional assay in TeloHEAC cells. The following applies: TeloHEAC cells stably expressing human CRF2a receptor, relative to urocortin 2 (100 nM = 100%). The format is cell-based. The method, boiled down: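 cAMP accumulation was measured by HTRF 665/620 nm ratio after 30 min at 37° C compound exposure (16 twofold dilutions) of CRF2a-expressing TeloHEAC cells, 10000/well, in HEPES-buffered HBSS plus IBMX. Activity was normalised to urocortin 2 at 100 nM (100%), and EC50 was the concentration giving half-maximal activation.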

The target in another experiment is T2, CFR1R receptor (Homo sapiens, UniProt P34998).
T2 construct: host or cells: CHO-K1 (clone 2)
T2 sequence (P34998 24-415): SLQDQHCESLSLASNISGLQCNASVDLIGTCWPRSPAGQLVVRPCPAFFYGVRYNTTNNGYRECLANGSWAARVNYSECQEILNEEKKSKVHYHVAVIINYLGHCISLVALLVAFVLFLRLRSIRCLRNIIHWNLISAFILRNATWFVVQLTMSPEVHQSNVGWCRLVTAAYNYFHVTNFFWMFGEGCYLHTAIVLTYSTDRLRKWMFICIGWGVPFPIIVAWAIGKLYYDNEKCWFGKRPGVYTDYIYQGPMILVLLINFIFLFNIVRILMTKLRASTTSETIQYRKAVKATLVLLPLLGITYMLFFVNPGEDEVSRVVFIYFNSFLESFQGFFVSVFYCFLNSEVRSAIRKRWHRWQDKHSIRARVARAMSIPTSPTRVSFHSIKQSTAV
Kind of experiment: Activity at anti-target CFR1R receptor, cAMP assay in CRF1R-overexpression CHO-K1 cells. The class given is cell-based. The following applies: 100% = Sauvagine at 100 nM; for EC50: cAMP. The gist of the method: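 Uses frozen stocks of CHO-K1 clone 2 cells overexpressing human CRF1R, plated at 4000 cells/well final, with cAMP measured by the same protocol as the TeloHAEC line. Full-activation control: 100 nM Sauvagine.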

On human CRF2a receptor, `CC[C@H](C)[C@H](NC(C)=O)C(=O)N[C@H](C(=O)N[C@@H](CC(C)C)C(=O)N[C@@H](CO)C(=O)N[C@@H](CC(C)C)C(=O)N[C@@H](CC(=O)O)C(=O)N[C@@H](C(=O)N1CCC[C@H]1C(=O)N[C@H](C(=O)N[C@@H](CCCCN)C(=O)N[C@@H](CC(C)C)C(=O)N[C@@H](CCCCNC(=O)COCCOCCNC(=O)COCCOCCNC(=O)CC[C@H](NC(=O)CCCCCCCCCCCCCCC(=O)O)C(=O)O)C(=O)N[C@@H](CCCCN)C(=O)N[C@H](C(=O)N[C@@H](CC(C)C)C(=O)N[C@@H](CC(C)C)C(=O)N[C@@H](CCC(=O)O)C(=O)N[C@@H](CCC(N)=O)C(=O)N[C@@H](CCC(=O)O)C(=O)N[C@@H](CCCCN)C(=O)N[C@@H](CCC(N)=O)C(=O)N[C@@H](CCCCN)C(=O)N[C@@H](CCCCN)C(=O)N[C@@H](CCC(N)=O)C(=O)N[C@@H](CCCNC(=N)N)C(=O)N[C@@H](CCC(=O)O)C(=O)N[C@@H](CCC(N)=O)C(=O)N[C@@H](C)C(=O)N[C@@H](CCC(=O)O)C(=O)N[C@H](C(=O)N[C@@H](CC(N)=O)C(=O)NC(C)(C)C(=O)N[C@@H](CCC(N)=O)C(=O)N[C@H](C(=O)N[C@@H](CC(C)C)C(=O)N[C@@H](C)C(=O)N[C@@H](CCC(N)=O)C(=O)N[C@H](C(N)=O)C(C)C)[C@@H](C)CC)[C@@H](C)O)[C@@H](C)CC)[C@@H](C)CC)C(C)C)C(C)C` [compound 42] (Ac-IVLSLD[dV]PIKLK([AEEA-AEEA-γGlu-C16 diacid])KILLEQEKQKKQREQAETN[Aib]QILAQV-NH2) returned an EC50 of 3.08 nM. At CFR1R receptor, the “Emax (% I)” value is 1 % I and the EC50 was more than 250 nM.
For `CC[C@H](C)[C@H](NC(C)=O)C(=O)N[C@H](C(=O)N[C@@H](CC(C)C)C(=O)N[C@@H](CO)C(=O)N[C@@H](CC(C)C)C(=O)N[C@@H](CC(=O)O)C(=O)N[C@H](C(=O)N1CCC[C@H]1C(=O)N[C@H](C(=O)N[C@@H](CCCCN)C(=O)N[C@@H](CC(C)C)C(=O)N[C@@H](CCCCNC(=O)CC[C@H](NC(=O)CCCCCCCCCCCCCCC(=O)O)C(=O)O)C(=O)N[C@@H](CCCCN)C(=O)N[C@H](C(=O)N[C@@H](CC(C)C)C(=O)N[C@@H](CC(C)C)C(=O)N[C@@H](CCC(=O)O)C(=O)N[C@@H](CCC(N)=O)C(=O)N[C@@H](CCC(=O)O)C(=O)N[C@@H](CCCCN)C(=O)N[C@@H](CCC(N)=O)C(=O)N[C@@H](CCCCN)C(=O)N[C@@H](CCCCN)C(=O)N[C@@H](CCC(N)=O)C(=O)N[C@@H](CCCNC(=N)N)C(=O)N[C@@H](CCC(=O)O)C(=O)N[C@@H](CCC(N)=O)C(=O)N[C@@H](C)C(=O)N[C@@H](CCC(=O)O)C(=O)N[C@H](C(=O)N[C@@H](CC(N)=O)C(=O)NC(C)(C)C(=O)N[C@@H](CCC(N)=O)C(=O)N[C@H](C(=O)N[C@@H](CC(C)C)C(=O)N[C@@H](C)C(=O)N[C@@H](CCC(N)=O)C(=O)N[C@H](C(N)=O)C(C)C)[C@@H](C)CC)[C@@H](C)O)[C@@H](C)CC)[C@@H](C)CC)C(C)C)C(C)C` [compound 39] (Ac-IVLSLDVPIKLK([γGlu-C16 diacid])KILLEQEKQKKQREQAETN[Aib]QILAQV-NH2) the same measures were 0.53 nM, 2 % I and more than 250 nM.
As for `CC[C@H](C)[C@H](NC)C(=O)N[C@H](C(=O)N[C@@H](CC(C)C)C(=O)N[C@@H](CO)C(=O)N[C@@H](CC(C)C)C(=O)N[C@@H](CC(=O)O)C(=O)N[C@@H](C(=O)N1CCC[C@H]1C(=O)N[C@H](C(=O)N[C@@H](CCCCN)C(=O)N[C@@H](CC(C)C)C(=O)N[C@@H](CCCCNC(=O)CC[C@H](NC(=O)CCCCCCCCCCCCCCCCCCC(=O)O)C(=O)O)C(=O)N[C@@H](CCCCN)C(=O)N[C@H](C(=O)N[C@@H](CC(C)C)C(=O)N[C@@H](CC(C)C)C(=O)N[C@@H](CCC(=O)O)C(=O)N[C@@H](CCC(N)=O)C(=O)N[C@@H](CCC(=O)O)C(=O)N[C@@H](C)C(=O)N[C@@H](CCC(N)=O)C(=O)N[C@@H](CCCCN)C(=O)N[C@@H](CCCCN)C(=O)N[C@@H](CCC(N)=O)C(=O)N[C@@H](CCCNC(=N)N)C(=O)N[C@@H](CCC(=O)O)C(=O)N[C@@H](CCC(N)=O)C(=O)N[C@@H](C)C(=O)N[C@@H](CCC(=O)O)C(=O)N[C@H](C(=O)N[C@@H](CC(N)=O)C(=O)NC(C)(C)C(=O)N[C@@H](CCC(N)=O)C(=O)N[C@H](C(=O)N[C@@H](CC(C)C)C(=O)N[C@@H](C)C(=O)N[C@@H](CCC(N)=O)C(=O)N[C@H](C(N)=O)C(C)C)[C@@H](C)CC)[C@@H](C)O)[C@@H](C)CC)[C@@H](C)CC)C(C)C)C(C)C` [compound 216] (H-[NMeI]VLSLD[dV]PIKLK([γGlu-C20 diacid])KILLEQEAQKKQREQAETN[Aib]QILAQV-NH2), on human CRF2a receptor, a half-maximal effect (EC50) was put at 0.05 nM. The “Emax (% I)” value at CFR1R receptor was 61 % I.
On to `CC[C@H](C)[C@H](NC(C)=O)C(=O)N[C@H](C(=O)N[C@@H](CC(C)C)C(=O)N[C@@H](CO)C(=O)N[C@@H](CC(C)C)C(=O)N[C@@H](CC(=O)O)C(=O)N[C@H](C(=O)N1CCC[C@H]1C(=O)N[C@H](C(=O)N[C@@H](CCCCN)C(=O)N[C@@H](CC(C)C)C(=O)N[C@@H](CCCCNC(=O)COCCOCCNC(=O)COCCOCCNC(=O)CC[C@H](NC(=O)CCCCCCCCCCCCCCCCC(=O)O)C(=O)O)C(=O)N[C@@H](CCCCN)C(=O)N[C@H](C(=O)N[C@@H](CC(C)C)C(=O)N[C@@H](CC(C)C)C(=O)N[C@@H](CCC(=O)O)C(=O)N[C@@H](CCC(N)=O)C(=O)N[C@@H](CCC(=O)O)C(=O)N[C@@H](CCCCN)C(=O)N[C@@H](CCC(N)=O)C(=O)N[C@@H](CCCCN)C(=O)N[C@@H](CCCCN)C(=O)N[C@@H](CCC(N)=O)C(=O)N[C@@H](CCCNC(=N)N)C(=O)N[C@@H](CCC(=O)O)C(=O)N[C@@H](CCC(N)=O)C(=O)N[C@@H](C)C(=O)N[C@@H](CCC(=O)O)C(=O)N[C@H](C(=O)N[C@@H](CC(N)=O)C(=O)N[C@H](C(=O)N[C@@H](CCC(N)=O)C(=O)N[C@H](C(=O)N[C@@H](CC(C)C)C(=O)N[C@@H](C)C(=O)N[C@@H](CCC(N)=O)C(=O)N[C@H](C(N)=O)C(C)C)[C@@H](C)CC)C(C)C)[C@@H](C)O)[C@@H](C)CC)[C@@H](C)CC)C(C)C)C(C)C` [compound 102] (Ac-IVLSLDVPIKLK([AEEA-AEEA-γGlu-C18 diacid])KILLEQEKQKKQREQAETNVQILAQV-NH2), for which the EC50 on human CRF2a receptor is 17.6 nM. Moreover, at CFR1R receptor, the “Emax (% I)” value is reported as −5 % I and the EC50 was more than 250 nM.
On the same counts, the results for `CC[C@H](C)[C@H](NC)C(=O)N[C@H](C(=O)N[C@@H](CC(C)C)C(=O)N[C@@H](CO)C(=O)N[C@@H](CC(C)C)C(=O)N[C@@H](CC(=O)O)C(=O)N[C@@H](C(=O)N1CCC[C@H]1C(=O)N[C@H](C(=O)N[C@@H](CCCCN)C(=O)N[C@@H](CC(C)C)C(=O)N[C@@H](CCCCNC(=O)CC[C@H](NC(=O)CCCCCCCCCCCCCCC(=O)O)C(=O)O)C(=O)N[C@@H](CCCCN)C(=O)N[C@H](C(=O)N[C@@H](CC(C)C)C(=O)N[C@@H](CC(C)C)C(=O)N[C@@H](CCC(=O)O)C(=O)N[C@@H](CCC(N)=O)C(=O)N[C@@H](CCC(=O)O)C(=O)N[C@@H](CCCCN)C(=O)N[C@@H](CCC(N)=O)C(=O)N[C@@H](CCCCN)C(=O)N[C@@H](CCCCN)C(=O)N[C@@H](CCC(N)=O)C(=O)N[C@@H](CCCNC(=N)N)C(=O)N[C@@H](CCC(=O)O)C(=O)N[C@@H](CCC(N)=O)C(=O)N[C@@H](C)C(=O)N[C@@H](CCC(=O)O)C(=O)N[C@H](C(=O)N[C@@H](CC(N)=O)C(=O)N[C@H](C(=O)N[C@@H](CCC(N)=O)C(=O)N[C@H](C(=O)N[C@@H](CC(C)C)C(=O)N[C@@H](C)C(=O)N[C@@H](CCC(N)=O)C(=O)N[C@H](C(N)=O)C(C)C)[C@@H](C)CC)C(C)C)[C@@H](C)O)[C@@H](C)CC)[C@@H](C)CC)C(C)C)C(C)C` [compound 66] (H-[NMeI]VLSLD[dV]PIKLK([γGlu-C16 diacid])KILLEQEKQKKQREQAETNVQILAQV-NH2) are 1.05 nM, 4 % I and more than 250 nM.
